Some results are limits rather than exact numbers.

The target of this assay is Mitogen-activated protein kinase kinase kinase kinase 1 (Homo sapiens, UniProt Q92918). Nature of the assay: Biochemical Enzyme Assay. The protocol: HPK1 biochemical enzyme assay: HPK1 enzyme inhibition was measured using a microfluidic mobility shift assay. […] Test compounds were titrated in ten point curves (top final assay concentration 3 μM), and preincubated with enzyme/substrate mix for 30 min prior to initiation of the reaction by addition of ATP (1 mM final concentration) and substrate (1 μM final concentration; Carna Biosciences) diluted in assay buffer supplemented by MgCl2 (final assay concentration of 5 mM). Following 60 min incubation at RT, the reaction was terminated by addition of 60 µl/well termination buffer (Carna Biosciences) and signal determination using aCaliper EZ Reader (Perkin Elmer, UK).
Chain of Mitogen-activated protein kinase kinase kinase kinase 1 (Q92918 whole entry): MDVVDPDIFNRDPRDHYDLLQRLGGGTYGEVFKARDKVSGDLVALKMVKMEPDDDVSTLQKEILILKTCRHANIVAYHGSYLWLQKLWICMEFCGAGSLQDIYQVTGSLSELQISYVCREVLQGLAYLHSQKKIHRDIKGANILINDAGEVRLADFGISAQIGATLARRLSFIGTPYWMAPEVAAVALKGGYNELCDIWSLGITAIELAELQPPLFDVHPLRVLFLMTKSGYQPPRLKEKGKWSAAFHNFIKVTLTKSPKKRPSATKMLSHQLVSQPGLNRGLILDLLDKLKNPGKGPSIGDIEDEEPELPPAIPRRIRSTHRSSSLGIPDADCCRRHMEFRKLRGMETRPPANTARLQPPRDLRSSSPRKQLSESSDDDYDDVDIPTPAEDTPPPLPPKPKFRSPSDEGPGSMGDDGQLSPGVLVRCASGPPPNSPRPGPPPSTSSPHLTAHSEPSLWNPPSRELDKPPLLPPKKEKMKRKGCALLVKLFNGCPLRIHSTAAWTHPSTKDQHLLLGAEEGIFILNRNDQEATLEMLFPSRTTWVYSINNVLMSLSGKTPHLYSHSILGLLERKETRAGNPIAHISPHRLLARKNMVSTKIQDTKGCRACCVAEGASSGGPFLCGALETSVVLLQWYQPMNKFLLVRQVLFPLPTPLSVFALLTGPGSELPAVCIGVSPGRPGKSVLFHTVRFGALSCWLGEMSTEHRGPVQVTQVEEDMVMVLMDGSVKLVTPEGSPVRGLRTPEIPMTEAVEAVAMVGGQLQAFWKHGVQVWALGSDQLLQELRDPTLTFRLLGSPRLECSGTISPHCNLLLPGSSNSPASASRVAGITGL
What is called IC50 is the point on the concentration scale where inhibition reaches its midpoint. `Cn1ccc2c(-c3ncc(Nc4ccc(C5CCOC5)c(CN5CCCC5)n4)c4c3CNC4=O)cccc21` (stereo not given) [US11021481, Compound I-552] returned an IC50 of less than 100 nM. On to `CC(C)(O)[C@@H]1CN(c2ccc(Nc3ccc(-c4cnc5c(C(F)F)cccn45)c4c3C(=O)NC4)nc2)CCO1` [US11021481, Compound I-475], for which the half-maximal inhibitory concentration (IC50) was less than 100 nM. With `Cc1ccn2c(-c3ncc(Nc4cccc(C5CC[C@@H]6CNC[C@H]56)n4)c4c3CNC4=O)cnc2c1F` (stereo not given in full) [US11021481, Compound I-480] the entry was “in the range around 550 nM”; with `COCC1(O)CCN(c2ccc(Nc3ccc(-c4ccnc5c4ccn5C)c4c3C(=O)NC4)nc2CN(C)C)CC1` [US11021481, Compound I-851], less than 100 nM. On to `CN1CC(O)(C2CCCN(c3ccc(Nc4ccc(C5=CNC6C=C(F)C=CN56)c5c4C(=O)NC5)nc3)C2)C1` (stereo not given) [US11021481, Compound I-599], for which the IC50 was less than 100 nM. As for `Cc1ccn2c(-c3ncc(Nc4cccc(C5CCC6CNCC65)n4)c4c3CNC4=O)cnc2c1F` (stereo not given) [US11021481, Compound I-481], the figure is less than 100 nM; as for `Cn1ccc2c1N=CNC2c1ccc(Nc2ccc(N3CCC(O)CC3)cn2)c2c1CNC2=O` (stereo not given) [US11021481, Compound I-144], less than 100 nM.

In the case of `O=C1NCc2c(-c3cnc4ccccn34)ccc(Cc3ccn(C4CCOCC4)n3)c21` [US11021481, Compound I-382], the IC50 was greater than 1000 nM. Molecule `C[C@@H]1CN(c2c(CN(C)C)cc(Nc3ccc(-c4cnc5cc(F)ccn45)c4c3C(=O)NC4)nc2CN(C)C)CCO1` [US11021481, Compound I-541] registered an IC50 of less than 100 nM. As to `CN1CCN(c2nc(Nc3ccc(-c4cnc5cc(F)ccn45)c4c3C(=O)NC4)cnc2[C@@H]2CCOC2)CC1` [US11021481, Compound I-802], the IC50 was less than 100 nM. As to `Cc1ccnn2c(-c3ncc(Nc4ccc(C5CCOC5)c(CN(C)C)n4)c4c3CNC4=O)cnc12` (stereo not given) [US11021481, Compound I-539], the IC50 was less than 100 nM. The molecule `CNC1CN(c2cccc(Nc3cnc(-c4ccnc5c4ccn5C)c4c3C(=O)NC4)c2)C1` [US11021481, Compound I-449] showed an IC50 of less than 100 nM. As for `CN(C)Cc1nc(Nc2cnc(-c3cccc4c3ccn4C)c3c2C(=O)NC3)ccc1O[C@@H]1CCOC1` [US11021481, Compound I-805], the IC50 is less than 100 nM. With `Cc1ccn2c(-c3ccc(Nc4ccc(C5CCOC5)c(CN(C)C)n4)c4c3CNC4=O)cnc2c1` (stereo not given) [US11021481, Compound I-561], the IC50 is less than 100 nM. As for `CN1CCN(c2nc(Nc3ccc(-c4cnc5cc(F)ccn45)c4c3C(=O)NC4)cnc2[C@H]2CCOC2)CC1` [US11021481, Compound I-801], the figure is less than 100 nM.

These data come from BindingDB's records for patent US11021481 (Nimbus Saturn, 2021).
